In US11203591B2, “Substituted 6-azabenzimidazole compounds” (Gilead Sciences, Inc., priority 2018, dated 2021) one finds IC50 data, which are given here for 22 compounds.

SMILES strings stand for the structures.

human HPK1 (MAP4K1), sequence (Q92918 17-274): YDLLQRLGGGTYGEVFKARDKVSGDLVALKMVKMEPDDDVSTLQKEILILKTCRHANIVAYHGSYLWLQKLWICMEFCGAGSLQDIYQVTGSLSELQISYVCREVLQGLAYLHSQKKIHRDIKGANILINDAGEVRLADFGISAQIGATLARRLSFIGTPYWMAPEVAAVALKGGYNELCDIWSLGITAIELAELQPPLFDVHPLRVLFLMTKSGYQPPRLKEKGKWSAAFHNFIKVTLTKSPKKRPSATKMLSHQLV

One test addresses human HPK1 (MAP4K1) (Homo sapiens (Human), UniProt Q92918). Put plainly: HPK1 IC50 Assay (TR-FRET peptide phosphorylation). As to conditions: 0.15 nM HPK1, 10 μM ATP, 1 μM STK S1 peptide substrate; geometric mean. The test is classed as biochemical. The method in brief: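 Readout: TR-FRET (665 nm/620 nm) after EDTA stop, detecting STK S1 peptide (1 μM) phosphorylation by 0.15 nM HPK1 kinase domain, ATP-pre-activated, at 10 μM ATP over 3 h, 25° C, pH 7.0. IC50s from four-parameter variable-slope fits, normalized to staurosporine and DMSO, averaged geometrically.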
For orientation: In TR-FRET formats the signal depends on donor and acceptor labels being close together.
For `CCNC(=O)c1cc(Nc2nc(-c3cnc4c(c3)N([C@H]3C[C@@](C)(N5CCCC6(CC6)C5)C3)C(=O)C4(C)C)cc3ncn(C(C)C)c23)c(F)c(F)c1C` [Example 285, 5-((6-(3,3-dimethyl-1-((1s,3s)-3-methyl-3-(5-azaspiro[2.5]octan-5-yl)cyclobutyl)-2-oxo-2,3-dihydro-1H-pyrrolo[3,2-b]pyridin-6-yl)-3-isopropyl-3H-imidazo[4,5-c]pyridin-4-yl)amino)-N-ethyl-3,4-difluoro-2-methylbenzamide], the IC50 (commonly the concentration needed to halve the response being measured) came out at 0.1 nM.
The same measure, in the same setting: with `CNC(=O)c1cc(Nc2nc(-c3cnc4c(c3)N([C@H]3C[C@@](C)(N5CCCCC5)C3)C(=O)C4(C)C)cc3ncn(C(C)C)c23)c(F)c(F)c1Cl` [Example 281, 2-chloro-5-((6-(3,3-dimethyl-1-((1s,3s)-3-methyl-3-(piperidin-1-yl)cyclobutyl)-2-oxo-2,3-dihydro-1H-pyrrolo[3,2-b]pyridin-6-yl)-3-isopropyl-3H-imidazo[4,5-c]pyridin-4-yl)amino)-3,4-difluoro-N-methylbenzamide] the figure was 0.07 nM.

The same test, now with this note: recombinant HPK1 kinase domain 0.15 nM, 10 μM ATP, 1 μM STK S1 peptide; geometric mean of multiple experiments.
Consider `CNC(=O)c1cc(Nc2nc(-c3ccc4c(c3)N([C@H]3C[C@@H](N5CCCC5)C3)C(=O)C4(C)C)cc3ncn(C(C)C)c23)ccc1C` [Example 103], for which the IC50 was 0.1 nM.
Still for that read-out and setting: as for `CCc1ccc(Nc2nc(-c3ccc4c(c3)N([C@H]3C[C@@H](N5CCCCC5)C3)C(=O)C4(C)C)cc3ncn(C(C)C)c23)cc1C(=O)NC` [Example 143], the figure is 0.06 nM; as for `CNC(=O)c1cc(Nc2nc(-c3ccc4c(c3)N([C@H]3C[C@@H](N5CCCCC5)C3)C(=O)C43CCN(C(=O)C(C)(C)O)CC3)cc3ncn(C(C)C)c23)ccc1C` [Example 146, 5-((6-(1′-(2-hydroxy-2-methylpropanoyl)-2-oxo-1-((1s,3s)-3-(piperidin-1-yl)cyclobutyl)spiro[indoline-3,4′-piperidin]-6-yl)-3-isopropyl-3H-imidazo[4,5-c]pyridin-4-yl)amino)-N,2-dimethylbenzamide], 0.1 nM.
On to `Cc1ccc(Nc2nc(-c3ccc4c(c3)N([C@H]3C[C@@H](N5CCOC(C)(C)C5)C3)C(=O)C4(C)C)cc3ncn(C4CC4)c23)cc1C(N)=O` [Example 16], for which the IC50 is 0.1 nM.
The same measure, in the same setting: with `Cc1ccc(Nc2nc(-c3ccc4c(c3)N([C@H]3C[C@@H](N5CCCCC5)C3)C(=O)C4(C)C)cc3ncn(C(C)C)c23)cc1C(=O)NC1(C(F)F)CC1` [Example 27] the figure was 0.07 nM; with `CNC(=O)c1cc(Nc2nc(-c3ccc4c(c3)N([C@H]3C[C@@H](NC5CC(F)(F)C5)C3)C(=O)C4(C)C)cc3ncn(C(C)C)c23)ccc1C` [Example 81], 0.3 nM; with `CCn1cnc2cc(-c3ccc4c(c3)N([C@H]3C[C@@H](N5CCCCC5)C3)C(=O)C4(C)C)nc(Nc3cc(C(=O)NC)c(C)cc3F)c21` [Example 101], 0.2 nM.
Still for that read-out and setting: with `Cc1c(C(=O)NC2(C(F)F)CC2)cc(Nc2nc(-c3cnc4c(c3)N([C@H]3C[C@@](C)(N5CCC[C@@H](F)C5)C3)C(=O)C4(C)C)cc3ncn(C(C)C)c23)c(F)c1F` [Example 196, N-(1-(Difluoromethyl)cyclopropyl)-3,4-difluoro-5-((6-(1-((1S,3s)-3-((R)-3-fluoropiperidin-1-yl)-3-methylcyclobutyl)-3,3-dimethyl-2-oxo-2,3-dihydro-1H-pyrrolo[3,2-b]pyridin-6-yl)-3-isopropyl-3H-imidazo[4,5-c]pyridin-4-yl)amino)-2-methylbenzamide] the figure was 0.1 nM; with `CCNC(=O)c1cc(Nc2nc(-c3ccc4c(c3)N([C@H]3C[C@@H](N5CCCCC5)C3)C(=O)C43CCN(C(C)=O)CC3)cc3ncn(C(C)C)c23)ccc1C` [Example 130], 0.1 nM; with `Cc1c(C(=O)NC2(C(F)F)CC2)cc(Nc2nc(-c3cnc4c(c3)N(C3CC(C)(N5CCC6C[C@@H]6C5)C3)C(=O)C4(C)C)cc3ncn(C(C)C)c23)c(F)c1F` (stereo partly shown) [Example 233, 5-((6-(1-((1s,3s)-3-(3-azabicyclo[4.1.0]heptan-3-yl)-3-methylcyclobutyl)-3,3-dimethyl-2-oxo-2,3-dihydro-1H-pyrrolo[3,2-b]pyridin-6-yl)-3-isopropyl-3H-imidazo[4,5-c]pyridin-4-yl)amino)-N-(1-(difluoromethyl)cyclopropyl)-3,4-difluoro-2-methylbenzamide], 0.08 nM.
Same read-out and setting: with `Cc1cc(F)c(Nc2nc(-c3ccc4c(c3)N([C@H]3C[C@@H](N5CCCCC5)C3)C(=O)C43CCOCC3)cc3ncn(C(C)C)c23)cc1C(=O)NC(C)C` [Example 125] the figure was 0.2 nM; with `CNC(=O)c1cc(Nc2nc(-c3ccc4c(c3)N([C@H]3C[C@@H](N5CCOCC5)C3)C(=O)C4(C)C)cc3ncn(C(C)C)c23)ccc1C` [Example 39], 0.1 nM; with `Cc1ccc(Nc2nc(-c3ccc4c(c3)N([C@H]3C[C@@H](N5CCCCC5)C3)C(=O)C4(F)F)cc3ncn(C4CC4)c23)cc1C(N)=O` [Example 184], 0.9 nM.
As for `Cc1c(C(=O)NC2(C(F)F)CC2)cc(Nc2nc(-c3cnc4c(c3)N([C@H]3C[C@@](C)(N5CCCOCC5)C3)C(=O)C4(C)C)cc3ncn(C(C)C)c23)c(F)c1F` [Example 208, N-(1-(Difluoromethyl)cyclopropyl)-5-((6-(3,3-dimethyl-1-((1s,3s)-3-methyl-3-(1,4-oxazepan-4-yl)cyclobutyl)-2-oxo-2,3-dihydro-1H-pyrrolo[3,2-b]pyridin-6-yl)-3-isopropyl-3H-imidazo[4,5-c]pyridin-4-yl)amino)-3,4-difluoro-2-methylbenzamide], the IC50 was determined as 0.09 nM.
Still for that read-out and setting: with `CNC(=O)c1cc(Nc2nc(-c3ccc4c(c3)N([C@H]3C[C@@H](N5CCC(C)(C)C5)C3)C(=O)C43CCN(C(C)=O)CC3)cc3ncn(C(C)C)c23)ccc1C` [Example 165] the figure was 0.1 nM; with `CC(C)n1cnc2cc(-c3cnc4c(c3)N([C@H]3C[C@@](C)(N5CC6CCC6C5)C3)C(=O)C4(C)C)nc(Nc3cc(C(=O)NC4(C(F)F)CC4)c(Cl)c(F)c3F)c21` (stereo partly shown) [Example 205, 5-((6-(1-((1s,3s)-3-(3-Azabicyclo[3.2.0]heptan-3-yl)-3-methylcyclobutyl)-3,3-dimethyl-2-oxo-2,3-dihydro-1H-pyrrolo[3,2-b]pyridin-6-yl)-3-isopropyl-3H-imidazo[4,5-c]pyridin-4-yl)amino)-2-chloro-N-(1-(difluoromethyl)cyclopropyl)-3,4-difluorobenzamide], 0.1 nM; with `CNC(=O)c1cc(Nc2nc(-c3ccc4c(c3)N([C@H]3C[C@@H](N5CCCCC5)C3)C(=O)C43CCN(C(=O)OC)CC3)cc3ncn(C4CC4)c23)ccc1C` [Example 50], 0.1 nM.
Same read-out and setting: with `CNC(=O)c1cc(Nc2nc(-c3ccc4c(c3)N([C@H]3C[C@@H](N5CCC[C@@H](F)C5)C3)C(=O)C43CCN(C4COC4)CC3)cc3ncn(C(C)C)c23)c(F)cc1C` [Example 170, 4-fluoro-5-((6-(1-((1S,3s)-3-((R)-3-fluoropiperidin-1-yl)cyclobutyl)-1′-(oxetan-3-yl)-2-oxospiro[indoline-3,4′-piperidin]-6-yl)-3-isopropyl-3H-imidazo[4,5-c]pyridin-4-yl)amino)-N,2-dimethylbenzamide] the figure was 0.8 nM; with `CNC(=O)c1cc(Nc2nc(-c3ccc4c(c3)N([C@H]3C[C@@H](N5CCCCC5)C3)C(=O)C43CCN(CC(F)F)CC3)cc3ncn(C(C)C)c23)c(F)cc1C` [Example 61], 0.2 nM; with `CNC(=O)c1cc(Nc2nc(-c3ccc4c(c3)N([C@H]3C[C@@H](N5CCCCC5)C3)C(=O)C43CCN(C(=O)C4(C)CCC4)CC3)cc3ncn(C4CC4)c23)ccc1C` [Example 149], 0.1 nM.
